In patent US4585866A, “Treatment of migraine with substituted tropyl benzoate derivatives” (Merrell Dow Pharmaceuticals Inc., priority 1984, dated 1986):

Experiments:
5-HT D-receptor = settings: at the doses used clinically for the treatment of migraine; cited from earlier work
5-HT M-receptor [1] = biological target: T1, 5-HT M-receptor (Oryctolagus cuniculus, UniProt A0A5F9C9J3); settings: reported by J. R. Fozard et al, Eur. J. Pharmacol. 1979 / 1978; cited from earlier work
T1 construct: determining their pA2 values in the isolated rabbit heart; from tissue; host or cells: isolated rabbit heart (receptor on the cardiac neurones)
T1 sequence (A0A5F9C9J3 1-494): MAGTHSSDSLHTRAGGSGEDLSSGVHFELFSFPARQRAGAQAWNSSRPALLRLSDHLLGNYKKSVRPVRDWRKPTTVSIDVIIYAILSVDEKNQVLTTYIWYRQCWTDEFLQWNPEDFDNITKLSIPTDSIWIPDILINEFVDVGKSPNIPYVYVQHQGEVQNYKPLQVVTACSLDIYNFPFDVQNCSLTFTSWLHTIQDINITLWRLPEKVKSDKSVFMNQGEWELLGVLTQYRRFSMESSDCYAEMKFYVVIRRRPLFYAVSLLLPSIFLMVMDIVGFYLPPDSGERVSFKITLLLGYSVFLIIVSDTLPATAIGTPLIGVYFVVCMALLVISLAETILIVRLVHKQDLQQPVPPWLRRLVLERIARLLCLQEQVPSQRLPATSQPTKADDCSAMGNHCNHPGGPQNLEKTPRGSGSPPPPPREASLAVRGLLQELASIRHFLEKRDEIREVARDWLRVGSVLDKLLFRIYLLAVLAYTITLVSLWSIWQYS

5-HT M-receptor [2] = biological target: T1, 5-HT M-receptor; experiment: pA2 against 5-HT in isolated rabbit heart; format: cell-based; settings: isolated rabbit heart; negative log of molar concentration of antagonist reducing effect of twice the ED50 of 5-HT to that of the ED50; read-out: pA2 5-HT (converted)
Method: The activity of the compounds against 5-HT can be assessed by determining their pA2 values in the isolated rabbit heart as described by J. R. Fozard et al, Eur. J. Pharmacol., 59, 195-210 (1979). In the method described, the molar concentration of antagonist which reduces the effects of twice the ED50 of 5-HT to that of the ED50 in the absence of antagonist is determined. The pA2 value is the negative logarithm of said molar concentrations.

| SMILES | 5-HT D-receptor antagonism (5-HT D-receptor) | other results |
| --- | --- | --- |
| CC(C)NC[C@H](O)COc1cccc2ccccc12 (racemic) [propanolol] | 5-HT D-receptor antagonists |  |
| COC(=O)C1C2CCC(CC1OC(=O)c1ccccc1)N2 (single isomer, unassigned) [nor(-) cocaine] |  | pA2 value (5-HT) (5-HT M-receptor [1]): 7.7 |
| CN(C)CCC=C1c2ccccc2CCc2ccccc21 [amitriptyline] | 5-HT D-receptor antagonists |  |
| CN(C)CCCN1c2ccccc2Sc2ccc(Cl)cc21 [chlorpromazine] | 5-HT D-receptor antagonists |  |
| CC[C@@H](CO)NC(=O)[C@@H]1C=C2c3cccc4c3c(cn4C)C[C@H]2N(C)C1 [methysergide] | 5-HT D-receptor antagonists |  |
| O=C(O[C@H]1C[C@H]2CC[C@@H](C1)N2)c1cc(Cl)cc(Cl)c1 [nortropyl 3,5-dichlorobenzoate, reference compound] |  | Kb (5-HT M-receptor [2]): 15.8 nM |
| COc1cc(C(=O)O[C@H]2C[C@H]3CC[C@@H](C2)N3C)cc(OC)c1OC [tropyl 3,4,5-trimethoxybenzoate] |  | Kb (5-HT M-receptor [2]): 3.16 nM |
